{"source": "patent US9644019B2", "about": "“Compounds for treating cardiac damage after ischaemia/reperfusion” (priority 2010, dated 2017)", "key": {"EMMPRIN promoter": {"system": "EMMPRIN promoter", "assay": "EMMPRIN promoter luciferase reporter (pEMMPRIN-WT), transient transfection of cardiomyocytes", "format": "cell-based, mouse", "conditions": "for EMMPRIN promoter transcriptional activity: cardiomyocytes transiently transfected with pEMMPRIN-WT", "method": "To clone the mouse EMMPRIN promoter, commercial chromosome BAC CH29-603O5 (which contains part of murine chromosome 10), from CHORI (Children's Hospital Oakland Research Institute) was used as a template in PCR reactions with the following oligonucleotides:\nThe resulting PCR fragment was cloned into the pGL3-Basic vector (Promega) at 5′ position to the luciferase reporter gene (hereinafter referred to as pEMMPRIN-WT).\nThe transient DNA transfection experiments were carried out by means of using the LIPOFECTAMINE (catatonic-lipid transfection reagent) 2000 reagent as previously described by the manufacturer. The luciferase content in the transfected cells was measured as previously described [Zaragoza C et al. Molecular pharmacology 2002; 62:927-935]. In summary, the cells were transiently transfected with 1 microgram of DNA and 10 μl of LIPOFECTAMINE (catatonic-lipid transfection reagent) 2000 in OPTIMEM culture medium (a modification of Eagle's Minimum Essential Media, buffered with HEPES and sodium bicarbonate, and supplemented with hypoxanthine, thymidine, sodium pyruvate, L-glutamine, trace elements, and growth factors) for 4 hours, after which time they were washed and incubated with fresh culture medium (MEM/10% FCS) for 16 hours. Furthermore, as a control, the cells were co-transfected with a plasmid containing the constitutively active promoter of cytomegalovirus fused with the R-Luciferase gene (Renilla), used as a control. Each sample was therefore evaluated for the content of both P-(firefly) and R-luciferase. […] of the gene product of the reporter gene of the co-transfected control plasmid. The results were normalized for R-Luciferase content.\nTo analyze in depth the repressive effect of NO on the EMMPRIN transcription, the first 1000 bps of the regulatory region of the EMMPRIN gene, fused to the luciferase reporter gene (pEMMPRIN-WT), were cloned."}, "iNOS": {"molecular_target": "T1, iNOS (Mus musculus, UniProt P29477)", "T1 construct": "tissue The Jackson Laboratories (mice); host or cells: living wild-type mice; heart after coronary ischemia/reperfusion", "T1 sequence (P29477 1-1144)": "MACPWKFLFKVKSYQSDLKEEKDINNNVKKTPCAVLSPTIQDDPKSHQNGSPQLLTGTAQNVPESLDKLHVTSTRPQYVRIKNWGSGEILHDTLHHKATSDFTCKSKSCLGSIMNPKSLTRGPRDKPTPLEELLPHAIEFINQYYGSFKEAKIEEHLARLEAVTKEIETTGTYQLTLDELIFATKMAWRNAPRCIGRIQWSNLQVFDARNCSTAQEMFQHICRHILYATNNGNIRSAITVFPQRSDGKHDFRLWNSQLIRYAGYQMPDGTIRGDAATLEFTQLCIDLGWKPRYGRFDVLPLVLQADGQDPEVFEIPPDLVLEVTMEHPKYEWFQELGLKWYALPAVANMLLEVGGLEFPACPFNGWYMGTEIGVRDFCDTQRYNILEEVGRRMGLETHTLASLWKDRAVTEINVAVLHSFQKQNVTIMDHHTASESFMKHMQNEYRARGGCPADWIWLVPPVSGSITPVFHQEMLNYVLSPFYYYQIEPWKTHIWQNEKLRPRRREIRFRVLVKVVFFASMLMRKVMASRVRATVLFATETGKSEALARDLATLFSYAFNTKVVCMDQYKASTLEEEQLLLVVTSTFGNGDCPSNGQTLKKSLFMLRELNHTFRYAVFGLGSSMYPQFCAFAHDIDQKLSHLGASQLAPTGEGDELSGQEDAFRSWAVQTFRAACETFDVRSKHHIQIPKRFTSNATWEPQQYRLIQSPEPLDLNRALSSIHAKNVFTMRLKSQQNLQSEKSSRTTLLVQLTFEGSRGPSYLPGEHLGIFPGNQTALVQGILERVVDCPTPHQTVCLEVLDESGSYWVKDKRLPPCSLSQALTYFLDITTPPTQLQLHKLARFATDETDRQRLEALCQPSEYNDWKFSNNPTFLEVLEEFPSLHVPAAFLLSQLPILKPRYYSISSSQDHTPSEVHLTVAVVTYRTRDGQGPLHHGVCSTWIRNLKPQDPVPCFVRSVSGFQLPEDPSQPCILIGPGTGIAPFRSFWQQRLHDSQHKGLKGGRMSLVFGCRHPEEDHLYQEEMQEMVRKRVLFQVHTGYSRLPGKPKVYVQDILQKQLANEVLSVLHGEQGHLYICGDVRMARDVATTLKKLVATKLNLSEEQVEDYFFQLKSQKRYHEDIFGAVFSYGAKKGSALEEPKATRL", "assay": "Coronary ischemia/reperfusion with pharmacological iNOS inhibition in iNOS wild-type mice", "format": "in vivo", "method": "Ischemia was induced by means of the coronary artery ligation in the manner detailed below: twelve week old mice were anesthetized intraperitoneally by means of using ketamine/xylazine (100 mg/kg/10 mg/kg, respectively), intubated with a 1 mm steel tube, and ventilated (2 ml, 80 pulses/minute). After this process, the chest of the mice was opened between the second and third ribs, being kept open by means of the aid of a retractor for mice. The pericardium was then opened to subsequently temporarily ligate the left coronary artery in a region close to its branch by means of using a 6-0 silk suture and for a period of 30 minutes. Evidence of coronary occlusion was clearly shown by means of the discoloration of the left ventricle after the arterial ligation. After 30 minutes, the ligation is removed, the chest closed and the skin sutured. Additionally, a group of control animals (sham) were included in the assays, in which the same method was carried out with the exception of the coronary artery occlusion. To inhibit iNOS in vivo, the iNOS wild-type mice were injected in the tail vein with 2 mg/kg/day of the pharmacological inhibitor of iNOS, 1400W, 30 minutes before ischemia and 24 hours after ischemia/reperfusion. […] To evaluate the effect of anti-EMMPRIN on the ischemic process/reperfusion, the antibodies were administered intravenously for four days before the surgical procedure, after which time the infarct size, cardiac function and EMMPRIN and MMP-9 expression were evaluated.\nThe heart of the animals was included in paraffin to subsequently obtain sections 4 microns thick as previously described [Tarin et al. mentioned ad supra]. The morphology of the heart was viewed by means of staining with hematoxylin and eosin, whereas collagen deposition was monitored by means of Masson's trichrome staining. […]\nAdditionally, nitration was detected by means of using anti-3-Nitrotyrosine in sections isolated from those same animals, confirming that the exogenously supplied NO was present in the hearts of the animals treated during the time of the experiment (FIG. 2D, right)."}, "[1]": {"system": "MAEC cells (mouse aortic endothelial cells)", "assay": "Internalization of AP-9 nanoparticles by MAEC cells and co-localization with EMMPRIN", "format": "cell-based", "conditions": "for internalization into MAEC cells: overnight incubation", "method": "The MAEC cells were incubated overnight with the AP-9 nanoparticles (NP-AP-9) (20 μg/ml) (right panel) or with non-loaded nanoparticles (NP-NT) (left panel). The MAEC cells were fixed, and EMMPRIN expression was detected using an anti-EMMPRIN antibody. Co-localization between the NP-AP-9 signal and the EMMPRIN signal was found in MAEC cells treated with NP-AP-9 (right panel), but this co-localization was not found in the control nanoparticles. The cores were stained with DAPI.\nThe MAEC cells were cultured in a black 96-well plate and incubated overnight with different concentrations of nanoparticles loaded with AP-9 (NP-AP9) or nanoparticles without AP-9 (NP-NT). Fluorescence was measured using an IVIS imaging system. The graph on the right represents the intensity of the fluorescence signal of the image on the left.\nNanoparticles containing AP-9 have therapeutic value, because EMMPRIN is inhibited and tissue damage due to proteolytic enzyme activation is reduced."}, "EMMPRIN mRNA [2]": {"system": "EMMPRIN mRNA", "assay": "EMMPRIN mRNA, quantitative real-time RT-PCR in HL1 cardiomyocytes", "format": "cell-based, mouse", "conditions": "cardiomyocytes in culture, 100 μM DETA-NO", "method": "(§1) (A) Quantitative real-time RT-PCR showing EMMPRIN expression in the hearts of wild-type and iNOS knockout animals after ischemia/reperfusion (n=3 in triplicate, mean±SD *p<0.05 vs iNOS null−). (B) Quantitative real-time RT-PCR showing EMMPRIN expression in HL1 cardiomyocytes in response to the exogenous administration of 100 μM DETA-NO (n=3, mean±SD *p<0.05). (C) Quantitative real-time RT-PCR showing EMMPRIN expression in RAW […] macrophages in culture in response to the exogenous administration of 100 μM of DETA-NO, endogenous NO production (50 μM LPS), or iNOS inhibition by means of adding 100 μM 1400W (n=3 mean±SD). (D) Stability assay of EMMPRIN mRNA in HL-1 cardiomyocytes (left) and in RAW […] macrophages (right) (n=3, mean±SD *p<0.05).\n(§2) The HL1 cardiomyocyte cell line was donated by Dr. Antonio Bernad and cultured as described [Ruiz-Meana M et al. Cardiovascular research 2006; 71:715-724]. The RAW […] murine macrophage line was cultured as described [Tarin C et al. Arteriosclerosis, thrombosis, and vascular biology 2009; 29:27-32]."}, "EMMPRIN mRNA [3]": {"system": "EMMPRIN mRNA", "assay": "EMMPRIN mRNA stability assay (actinomycin D) in HL-1 cardiomyocytes", "format": "cell-based, mouse", "conditions": "cardiomyocyte cell line, over time", "method": "(§3) For this assay, cells were incubated in wells […] in diameter and incubated in the presence of 10 μM of actinomycin D for 16 hours, after which time the cells were treated with diethylenetriamine-NO (DETA-NO) at different times. The RNA of the different experiment times was isolated and both for EMMPRIN and for GAPDH (as a control), their mRNAs were evaluated by means of quantitative real-time RT-PCR."}, "EMMPRIN mRNA [4]": {"system": "EMMPRIN mRNA", "assay": "EMMPRIN mRNA stability assay (actinomycin D) in RAW macrophages", "format": "cell-based, murine", "method": "as §3"}, "EMMPRIN mRNA [5]": {"system": "EMMPRIN mRNA", "assay": "EMMPRIN mRNA, quantitative real-time RT-PCR in RAW macrophages", "format": "cell-based, murine", "conditions": "RAW macrophage cell line, 100 μM DETA-NO", "method": "as §1, §2"}}, "note": "No end group written: not given here."}
{"molecule": "NCCCNCCCCN(CCCN)/[N+]([O-])=N/O", "note": "[Spermine-NONOate]", "values": [{"measurement": "EMMPRIN promoter transcriptional activity", "setting": "EMMPRIN promoter", "value": "results similar to those generated with DETA-NO"}]}
{"molecule": "CC(=N)NCc1cccc(CN)c1", "note": "[1400W]", "values": [{"measurement": "infarct size", "setting": "iNOS; 1400W 2 mg/kg/day tail vein, vs control mice", "value": "significantly increase"}, {"measurement": "MMP-9 levels", "setting": "iNOS; 1400W 2 mg/kg/day, WT 1400WC vs WT 1400W", "value": "increase"}, {"measurement": "EMMPRIN levels", "setting": "iNOS; 1400W 2 mg/kg/day, vs control mice", "value": "increase"}]}
{"molecule": "CC(=O)NC(C(=O)O)C(C)(C)SN=O", "note": "(racemic) [SNAP, S-Nitroso-N-acetyl-D,L-penicillamine]", "values": [{"measurement": "EMMPRIN promoter transcriptional activity", "setting": "EMMPRIN promoter", "value": "results similar to those generated with DETA-NO"}]}
{"molecule": "NP-AP-9: nanoparticles with iron oxide core, single lipid-PEG layer with fluorochrome, and AP-9 peptide bound to the surface (YKLPGHHHHYRP; also: bound to surface of iron oxide nanoparticles with lipid-PEG layer and fluorochrome, attachment site not given here)", "values": [{"measurement": "co-localization of nanoparticle signal with EMMPRIN signal", "setting": "[1]; 20 μg/ml overnight", "value": "Co-localization"}, {"measurement": "dose dependence of internalization (fluorescence signal)", "setting": "[1]; 96-well plate, different concentrations overnight, IVIS imaging", "value": "dose-dependent manner"}, {"measurement": "internalization into MAEC cells", "setting": "[1]", "value": "internalization"}, {"measurement": "internalization into MAEC cells", "setting": "[1]; listed as Nanoparticles containing AP-9", "value": "could be internalized"}]}
{"molecule": "Nc1nc2c(nc(Br)n2[C@@H]2O[C@@H]3COP(=O)(O)O[C@H]3[C@H]2O)c(=O)[nH]1", "note": "[8-Br-cGMP]", "values": [{"measurement": "EMMPRIN promoter transcriptional activity", "setting": "EMMPRIN promoter", "value": "same effect as the NO donor"}]}
{"molecule": "NCCN(CCN)/[N+]([O-])=N/O", "note": "[DETA-NO, diethylenetriamine-NO]", "values": [{"measurement": "EMMPRIN mRNA levels", "setting": "EMMPRIN mRNA [2]", "value": "significantly reduced"}, {"measurement": "EMMPRIN mRNA stability", "setting": "EMMPRIN mRNA [3]", "value": "significant reduction"}, {"measurement": "EMMPRIN mRNA stability", "setting": "EMMPRIN mRNA [4]", "value": "no effect whatsoever"}, {"measurement": "EMMPRIN gene expression", "setting": "EMMPRIN mRNA [5]", "value": "did not induce a significant effect"}]}
{"molecule": "O=c1c2nc(Br)n([C@@H]3O[C@@H]4CO[P@@](O)(=S)O[C@H]4[C@H]3O)c2nc2[nH]c(-c3ccccc3)cn12", "note": "[Rp-8-Br-PET-cGMPS]", "values": [{"measurement": "EMMPRIN promoter transcriptional activity", "setting": "EMMPRIN promoter", "value": "significant increase"}, {"measurement": "EMMPRIN promoter activity in combination with NO", "setting": "EMMPRIN promoter; cardiomyocytes, pEMMPRIN-WT, PET + NO (100 μM DETA-NO)", "value": "partially restoring the negative effect of NO"}]}
